In patent publication US9040563B2, “Dual inhibitors of farnesyltransferase and geranylgeranyltransferase I” (H. Lee Moffitt Cancer Center and Research Institute, Inc., priority 2010, dated 2015):
Read-outs that look alike come from different tables or passages of the source.

What was measured:
[1] = target: hFTase (Homo sapiens, UniProt P49354+P49356); assay: In vitro hFTase inhibition: incorporation of [3H]FPP into recombinant H-Ras-CVLS; type: biochemical; settings: for selectivity (ratio of GGTase-I to FTase IC50s): GGTase-I IC50 / hFTase IC50
[2] = system: farnesylation of H-Ras; assay: Whole cell inhibition of H-Ras processing (farnesylation), immunoblot, oncogenic H-Ras-transformed NIH3T3 cells; type: cell-based, mouse; settings: Mus musculus, NIH3T3, whole cells, oncogenic H-Ras-transformed NIH3T3; n = 3 unless stated; read-out: H-Ras processing IC50
Procedure: (§1) In vitro inhibition assays for FTase and GGTase-I were conducted by measuring the incorporation of [^3H]FPP and [^3H]GGPP into recombinant H-Ras-CVLS and H-Ras-CVLL, respectively, as previously described (Vogt, et al., Protein geranylgeranylation, not farnesylation, is required for the G1 to S phase transition in mouse fibroblasts. Oncogene, 1996, 13, 1991-1999). The in vivo inhibition of farnesylation and geranylgeranylation was determined based on the level of inhibition by synthetic compounds of H-Ras and Rap1A processing, respectively (Sun, et al., Both farnesyltransferase and geranylgeranyltransferase I inhibitors are required for inhibition of oncogenic K-Ras prenylation but each alone is sufficient to suppress human tumor growth in nude mouse xenografts. Oncogene, 1998, 16, 1467-1473). […] The separated proteins were transferred to nitrocellulose and immunoblotted using an anti-Ras antibody (Y13-258) or an anti-Rap1A antibody (SantaCruz Biotechnology, Santa Cruz, Calif.), respectively. Antibody reactions were visualized using either peroxidase-conjugated goat anti-rat IgG or goat anti-rabbit IgG (Jackson ImmunoResearch, West Grove, Pa.) and an enhanced chemiluminescence detection system.
(§2) Briefly, in vitro inhibition assays for hFTase and GGTase-I were carried out by measuring the incorporation of [^3H]FPP and [^3H]GGPP into recombinant H-Ras-CVLS and H-Ras-CVLL, respectively, as described previously (Vogt et al., Protein geranylgeranylation, not farnesylation, is required for G1 to S phase transition in mouse fibroblasts. Oncogene. 1996; 13:1991-1999). Whole cell inhibition of farnesylation and geranylgeranylation were determined based on the level of inhibition by synthetic compounds of H-Ras and Rap1A processing, respectively (Sun, et al., Both farnesyltransferase and geranylgeranyltransferase I inhibitors are required for inhibition of oncogenic K-Ras prenylation but each alone is sufficient to suppress human tumor growth in nude mouse xenografts. Oncogene. 1998; 16:1467-1473).

[3] = system: geranylgeranylation of Rap1A; assay: Whole cell inhibition of Rap1A processing (geranylgeranylation), immunoblot, oncogenic H-Ras-transformed NIH3T3 cells; type: cell-based, mouse; settings: Mus musculus
Procedure: as §1, §2

[4] = whole cells, oncogenic H-Ras-transformed NIH3T3, n = 3 unless stated, read-out: Rap1A processing IC50

Compound	selectivity (ratio of GGTase-I to FTase IC50s) [1]	IC50 [3, 4]	further results
4-[{2-[Benzyl-(1-methyl-1H-imidazole-4-sulfonyl)-amino]-ethyl}-(1-methyl-1H-imidazol-4-ylmethyl)-amino]-benzamide [compound 13]	>2	–	–
C#CCN(CCN(Cc1cncn1C)c1ccc(C#N)cc1)S(=O)(=O)c1cn(C)cn1 [1aa]	>14	> 10 µM	IC50 [2]: 6 µM
C=CCN(CCN(Cc1cncn1C)c1ccc(C#N)cc1)S(=O)(=O)c1cn(C)cn1 [1ab]	>14	> 10 µM	–
C=C(C)CN(CCN(Cc1cncn1C)c1ccc(C#N)cc1)S(=O)(=O)c1cn(C)cn1 [1ac]	5.3	> 10 µM	GGTase-I/FTase selectivity ([1]; selectivity for hFTase over GGTase-I): about 5 fold; IC50 [2]: > 10 µM
C=C(Br)CN(CCN(Cc1cncn1C)c1ccc(C#N)cc1)S(=O)(=O)c1cn(C)cn1 [1ad]	31	> 10 µM	IC50 [2]: 5.7 ± 1.5 µM
Cn1cnc(S(=O)(=O)N(CCN(Cc2cncn2C)c2ccc(C#N)cc2)Cc2cccs2)c1 [1ak, [N-(Thiophen-2-ylmethyl), N-{2-[(4-cyanophenyl)-(3-methyl-3H-imidazol-4-ylmethyl)-amino]-ethyl}]1-methyl-1H-imidazole-4-sulfonamide]	2.6	> 10 µM	–
Cc1ccccc1CN(CCN(Cc1cncn1C)c1ccc(C#N)cc1)S(=O)(=O)c1cn(C)cn1 [1ao]	15	> 10 µM	–
Cc1cccc(CN(CCN(Cc2cncn2C)c2ccc(C#N)cc2)S(=O)(=O)c2cn(C)cn2)c1 [1ap]	12	> 10 µM	–
Cc1ccc(CN(CCN(Cc2cncn2C)c2ccc(C#N)cc2)S(=O)(=O)c2cn(C)cn2)cc1 [1aq]	–	–	IC50 ([3]; NIH3T3, read-out: Rap1A processing IC50): > 10 µM
Cn1cnc(S(=O)(=O)N(CCN(Cc2cncn2C)c2ccc(C#N)cc2)Cc2cccc(C#N)c2)c1 [1ar]	–	> 10 µM	–
Cn1cnc(S(=O)(=O)N(CCN(Cc2cncn2C)c2ccc(C#N)cc2)Cc2cccc(-c3ccccc3)c2)c1 [1at]	2.4	> 10 µM	–
Cn1cnc(S(=O)(=O)N(CCN(Cc2cncn2C)c2ccc(C#N)cc2)Cc2ccc(-c3ccccc3)cc2)c1 [1au]	4.3	> 10 µM	–
Cn1cnc(S(=O)(=O)N(CCN(Cc2cncn2C)c2ccc(C#N)cc2)Cc2ccc(-n3cccc3)cc2)c1 [1av]	15	> 10 µM	–
Cn1cncc1CN(CCN(Cc1ccccc1)S(=O)(=O)c1ccccc1)c1ccc(C#N)cc1 [1d]	7.6	> 10 µM	–
Cn1cnc(S(=O)(=O)N(CCN(Cc2cncn2C)c2ccc(C#N)cc2Cl)CC2CCN(c3ncccn3)CC2)c1 [19a, [N-{2-[(2-Chloro-4-cyanophenyl)-(3-methyl-3H-imidazol-4-ylmethyl)-amino]-ethyl}, N-{N-(2-pyrimidinyl)-piperidin-4-ylmethyl}]1-methyl-1H-imidazole-4-sulfonamide]	>18	–	–
Cn1cnc(S(=O)(=O)N(CCN(Cc2cncn2C)c2ccc(C#N)nc2)CC2CCN(c3ncccn3)CC2)c1 [19b]	>19	–	–
Cn1cnc(S(=O)(=O)N(CCN(Cc2cncn2C)c2ccc(C#N)cn2)CC2CCN(c3ncccn3)CC2)c1 [19c, [N-{2-[(5-Cyanopyridin-2-yl)-(3-methyl-3H-imidazol-4-ylmethyl)-amino]-ethyl}, N-{N-(2-pyrimidinyl)-piperidin-4-ylmethyl}]1-methyl-1H-imidazole-4-sulfonamide]	>91	–	–

Compound	selectivity (ratio of GGTase-I to FTase IC50s) [1]	IC50 [3, 4]	further results
Cn1cnc(S(=O)(=O)N(CCN(Cc2cncn2C)c2ncc(C#N)cn2)CC2CCN(c3ncccn3)CC2)c1 [19d, [N-{2-[(5-Cyanopyrimidin-2-yl)-(3-methyl-3H-imidazol-4-ylmethyl)-amino]-ethyl}, N-{N-(2-pyrimidinyl)-piperidin-4-ylmethyl}]1-methyl-1H-imidazole-4-sulfonamide]	>16	–	–
Cn1cnc(S(=O)(=O)N(CCN(Cc2cncn2C)c2ccc(C#N)c(F)c2)CC2CCN(c3ncccn3)CC2)c1 [19e, [N-{2-[(3-Fluoro-4-cyanophenyl)-(3-methyl-3H-imidazol-4-ylmethyl)-amino]-ethyl}, N-{N-(2-pyrimidinyl)-piperidin-4-ylmethyl}]1-methyl-1H-imidazole-4-sulfonamide]	41	–	–
Cn1cnc(S(=O)(=O)N(CCN(Cc2cncn2C)c2c(F)cc(C#N)cc2F)CC2CCN(c3ncccn3)CC2)c1 [19g, [N-{2-[(2,6-Difluoro-4-cyanophenyl)-(3-methyl-3H-imidazol-4-ylmethyl)-amino]-ethyl}, N-{N-(2-pyrimidinyl)-piperidin-4-ylmethyl}]1-methyl-1H-imidazole-4-sulfonamide]	>34	–	–
Cn1cnc(S(=O)(=O)N(CCN(Cc2cncn2C)c2c(F)c(F)c(C#N)c(F)c2F)CC2CCN(c3ncccn3)CC2)c1 [19h, [N-{2-[(2,3,5,6-Tetrafluoro-4-cyanophenyl)-(3-methyl-3H-imidazol-4-ylmethyl)-amino]-ethyl}, N-{N-(2-pyrimidinyl)-piperidin-4-ylmethyl}]1-methyl-1H-imidazole-4-sulfonamide]	18	–	–
Cn1cnc(S(=O)(=O)N(CCCN(Cc2cncn2C)c2ccc(C#N)cc2)Cc2ccccc2)c1 [20a]	11	–	–
Cn1cnc(S(=O)(=O)N(Cc2ccccc2)[C@@H]2CCC[C@@H]2N(Cc2cncn2C)c2ccc(C#N)cc2)c1 [20b]	>10	–	–
Cn1cnc(S(=O)(=O)N(Cc2ccccc2)[C@H]2CC[C@@H](N(Cc3cncn3C)c3ccc(C#N)cc3)C2)c1 [20d]	>15	–	–
Cn1cnc(S(=O)(=O)N(CCN(Cc2cncn2C)c2ccc(C#N)cc2)Cc2ccccc2)c1 [compound 1a]	–	> 10 µM	IC50 [2]: 1.9 ± 1.2 µM
Cn1cnc(S(=O)(=O)N(CCN(Cc2cncn2C)c2ccc(C#N)cc2)Cc2ccsc2)c1 [compound 1ai, [N-(Thiophen-3-ylmethyl), N-{2-[(4-cyanophenyl)-(3-methyl-3H-imidazol-4-ylmethyl)-amino]-ethyl}]1-methyl-1H-imidazole-4-sulfonamide]	14	> 10 µM	–
Cn1cnc(S(=O)(=O)N(CCN(Cc2cncn2C)c2ccc(C#N)cc2)Cc2ccco2)c1 [compound 1aj, [N-(Furan-2-ylmethyl), N-{2-[(4-cyanophenyl)-(3-methyl-3H-imidazol-4-ylmethyl)-amino]-ethyl}]1-methyl-1H-imidazole-4-sulfonamide]	15	> 10 µM	–
Cn1cncc1CN(CCN(Cc1ccccc1)S(=O)(=O)c1ccccn1)c1ccc(C#N)cc1 [compound 1f]	–	> 10 µM	IC50 [2]: 0.09 ± 0.06 µM
Cn1cnc(S(=O)(=O)N(CCN(Cc2cnc[nH]2)c2ccccc2)Cc2ccccc2)c1 [compound 3]	1.6	> 10 µM	IC50 ([1]; in vitro, average of three independent assays (n = 3) unless stated, errors are standard deviations): 6.3 ± 0.36 µM
Cn1cnc(S(=O)(=O)N(CCN(Cc2cncn2C)c2ccc(C(=O)OC(C)(C)C)cc2)Cc2ccccc2)c1 [compound 11, tert-Butyl 4-[{2-[benzyl-(1-methyl-1H-imidazole-4-sulfonyl)-amino]-ethyl}-(3-methyl-3H-imidazol-4-ylmethyl)-amino]-benzoate]	0.9	–	–
Cn1cnc(S(=O)(=O)N(CCN(Cc2cncn2C)c2ccc(C(=O)O)cc2)Cc2ccccc2)c1 [compound 12, 4-[{2-[Benzyl-(1-methyl-1H-imidazole-4-sulfonyl)-amino]-ethyl}-(3-methyl-3H-imidazol-4-ylmethyl)-amino]-benzoic acid]	48	–	–
Cn1cnc(S(=O)(=O)N(CCN(Cc2cncn2C)c2ccc(-c3ccccc3)cc2)Cc2ccccc2)c1 [compound 14, [N-Benzyl, N-{2-[(biphenyl-4-yl)-(3-methyl-3H-imidazol-4-ylmethyl)-amino]-ethyl}]1-methyl-1H-imidazole-4-sulfonamide]	0.7	–	–
Cn1cnc(S(=O)(=O)N(CCN(Cc2cncn2C)c2ccc(C#N)cc2F)CC2CCN(c3ncccn3)CC2)c1 [compound 19f, [N-{2-[(2-Fluoro-4-cyanophenyl)-(3-methyl-3H-imidazol-4-ylmethyl)-amino]-ethyl}, N-{N-(2-pyrimidinyl)-piperidin-4-ylmethyl}]1-methyl-1H-imidazole-4-sulfonamide]	>156	–	–
